The values below come from EP4259152B1, “CEMTIRESTAT DISULFIDE, PRODRUG OF ALDO-KETO REDUCTASE INHIBITOR, PREPARATION, PHARMACEUTICAL COMPOSITION AND USE THEREOF” (Centrum Experimentálnej Medicíny SAV, v.v.i., priority 2020, dated 2022).

Where two headings read alike, the source gives them in different places. Some results are limits rather than exact numbers.

In data set [1] the target is T1, AKR1B10 (Homo sapiens, UniProt O60218). Particulars: Stefek et al.; J. Med Chem. 58: 2649-57, 2015; cited from earlier work.
T1 sequence (O60218 whole entry, species assumed): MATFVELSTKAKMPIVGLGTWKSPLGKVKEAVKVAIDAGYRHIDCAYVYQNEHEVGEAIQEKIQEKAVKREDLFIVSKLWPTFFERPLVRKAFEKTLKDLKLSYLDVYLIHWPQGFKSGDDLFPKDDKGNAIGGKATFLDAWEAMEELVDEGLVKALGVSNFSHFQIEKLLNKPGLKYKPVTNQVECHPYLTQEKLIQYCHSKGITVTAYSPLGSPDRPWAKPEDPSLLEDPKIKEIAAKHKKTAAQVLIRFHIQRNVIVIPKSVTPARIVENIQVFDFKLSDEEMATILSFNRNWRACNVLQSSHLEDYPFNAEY
For the next data set, the target named is AKR1B1 (Homo sapiens, UniProt P15121). Briefly: Inhibition of aldo-keto reductase AKR1B1. It is filed as biochemical.
Another data set addresses T2, ALR2 (Rattus norvegicus, UniProt P07943).
T2 construct: The ALR2 enzyme from rat lenses was isolated by the method of Hayman and Kinoshit; from tissue; host or cells: rat eye lenses
Briefly: Test B: Inhibition of ALR2 by disulfide of formula I in the presence of GSH (NADPH consumption at 340 nm). It is filed as biochemical. Particulars: disulfide of formula I 100 µM, 67 mM phosphate buffer (pH 7.4), 37 °C, measured 2 min after GSH addition. On the procedure: Preparation ofALR2. The ALR2 enzyme from rat lenses was isolated by the method of Hayman and Kinoshit (J. Biol. Chem. 240: 877-882, 1965). The homogenate was centrifuged at 10,000 g at 0-4 °C for 20 min. The supernatant was precipitated with saturated ammonium sulfate solution gradually at 40 %, 50 % and finally at 75 % saturation. After the first two precipitations, the supernatant was used. The sediment from the last step, containing ALR2 activity, was resuspended in 75% ammonium sulfate and stored in smaller aliquots in a liquid nitrogen container.
Enzyme test. ALR2 activity was measured spectrophotometrically (Stefek et al.; Bioorg. Med Chem. 16: 4908-4920, 2008) by determining NADPH consumption at 340 nm and expressed as a decrease in optical density (O.D.) / s / mg protein. The reaction mixture contained 4.67 mM D,L-glyceraldehyde as substrate, 0.11 mM NADPH in 67 mM phosphate buffer (pH 7.4), GSH at the desired concentration and 0.05 ml of enzyme preparation a total volume of 1.5 ml. The reference (blank) sample contained all of the above components except D,L-glyceraldehyde substrate and was used to correct for NADPH oxidation unrelated to substrate reduction. Enzyme catalysis was initiated by the addition of D,L-glyceraldehyde and the reaction was monitored for 4 minutes after an initial 1 minute period at 37 °C. The enzyme activity was adjusted by diluting the enzyme preparations with distilled water so that 0.05 ml of the preparation gave an average reaction rate for the control samples in the range of 0.020 ± 0.005 absorbance units / min. The effect of inhibitor on enzyme activity was determined by adding a stock solution of inhibitor in DMSO to the reaction mixture at a final concentration of 100 µM so that the final DMSO concentration was 1%. An inhibitor with the same concentration was added to the reference sample. Enzyme activity was started 2 min after the addition of GSH to the reaction mixture by adding D,L-glyceraldehyde used as a substrate, and I(%) values were determined from the measured absorbance decrease values.

The nature of data set [2]: Test C: Determination of the distribution ratio in the buffer/octan-1-ol system (shake-flask method). It is filed as physicochemical. The settings on record: for D (distribution ratio in the buffer/octan-1-ol system): 100 µM, room temperature, mean ± SD, n=3. The method, then:
The partition ratio in the buffer/1-octanol system (system name octan-1-ol), defined as the equilibrium ratio of the total solute concentration in the organic phase to the total solute concentration in the aqueous phase, was determined by the shake-flask method at room temperature. Octan-1-ol saturated with the desired buffer was used as the organic phase for the determination. […] The aqueous solution was shaken with octan-1-ol (20 mL) for 3 hours. Subsequently, the phases were separated in a separatory funnel and the concentration of the solute was determined spectrophotometrically in both phases by means of a calibration curve.

Data set [3] deals with T1, AKR1B10. Briefly: Inhibition of aldo-keto reductase AKR1B10. Format: biochemical. The settings on record: meaning of 'does not interact per se'.
Data set [4] is described as follows: Test A: Reduction of disulfide of formula I by GSH (cleavage kinetics to form cemtirestat of formula II, absorbance at 302 nm). Format: physicochemical. Particulars: mean ± SD, n=3; for Final degree of disulfide of formula I reduction: calculated after reaching the maximum in the 60th second, disulfide 50 µM, pH 7.4, 37 °C; for Initial rate of cemtirestat of formula II formation: disulfide of formula I 50 µM, 20 mM phosphate buffer (pH 7.4) at 37 °C.

As for `O=C(O)Cn1c2ccccc2c2nnc(S)nc21` [Cemtirestat of formula II, 2-(3-thioxo-2,3-dihydro-5H-[1,2,4]triazino[5,6-b]indol-5-yl)acetic acid], the IC50 at AKR1B10 [1] is 3.69 ± 0.53 µM.

For the compound `O=C(O)Cn1c2ccccc2c2nnc(SSc3nnc4c5ccccc5n(CC(=O)O)c4n3)nc21` [Disulfide of formula I, 2,2'-(disulfanediylbis(5H-[1,2,4]triazino[5,6-b]indole-3,5-diyl))diacetic acid], the IC50 against AKR1B1 and on AKR1B10 [3] was above 100 µM throughout. Further, the inhibition at 100 µM is below 1% at ALR2 (pH 7.4, GSH added 0 µM); below 1% on ALR2 (pH 7.4, GSH added 5 µM); 8.9 ± 0.6% on ALR2 (pH 7.4, GSH added 10 µM); 12.4 ± 1.4% on ALR2 (pH 7.4, GSH added 20 µM); 16.1 ± 6.9% on ALR2 (pH 7.4, GSH added 40 µM); 72.6 ± 9.1% at ALR2 (pH 7.4, GSH added 100 µM). The inhibition at 100 µM on ALR2 (pH 7.4, GSH added 1000 µM) worked out at 94 ± 1.6%; on ALR2 (pH 7.4, GSH added 5000 µM), 91.1 ± 1.5%. In data set [2] (acidic environment at pH 4.6, fold higher than cemtirestat of formula II), the “water/octanol distribution ratio compared to cemtirestat of formula II” value is around 4 fold. Moreover, the “D (distribution ratio in the buffer/octan-1-ol system)” value in data set [2] (pH 4.6, acetate buffer (0.1M) + 0.15 M KCl) is recorded as 0.1136 ± 0.0022; in data set [2] (pH 7.4, phosphate buffer (0.1M) + 0.15 M KCl), 0.0095 ± 0.0019. In addition, the “Final degree of disulfide of formula I reduction” value is recorded as 39.68 ± 1.59% in data set [4] (GSH 25 µM), 67.70 ± 3.72% in data set [4] (GSH 50 µM) and 85.16 ± 5.11% in data set [4] (GSH 100 µM). The “Initial rate of cemtirestat of formula II formation” value worked out at 4.46 ± 1.68 nmol/mL/s in data set [4] (GSH 25 µM), 7.30 ± 1.46 nmol/mL/s in data set [4] (GSH 50 µM) and 9.83 ± 2.09 nmol/mL/s in data set [4] (GSH 100 µM).
